Laboratory results as given in US20070142392A1, “Uses of rifamycins” (ActivBiotics, Inc., priority 2005, published 2007).
In brackets after ≈: the same amount, converted by molar mass.

How the values were obtained:
Format in all cases: cell-based
H. flu = test system: H. flu
S. aureus = assay: MIC values, S. aureus (Tables 1-4)
S. pneumo. = assay: MIC values, S. pneumo. (Tables 1-4)
E. coli = assay: MIC values, E. coli (Tables 1-4)
E. faecalis = assay: MIC values, E. faecalis (Tables 1-4)

SMILES | MIC H. flu (H. flu) | MIC S. aureus (S. aureus) | MIC S. pneumo. (S. pneumo.) | MIC E. coli (E. coli) | MIC E. faecalis (E. faecalis)
CO[C@H]1/C=C/O[C@@]2(C)Oc3c(C)c(O)c4c(=O)c(c5oc6cc(N7CCC(NC(=O)OCC(C)C)CC7)cc(O)c6nc-5c4c3C2=O)NC(=O)/C(C)=C\C=C\[C@H](C)[C@H](O)[C@@H](C)[C@@H](O)[C@@H](C)[C@H](OC(C)=O)[C@@H]1C [Compound 13] | 2000 ng/mL (≈ 2000 nM) | 8 ng/mL (≈ 8.01 nM) | 0.12 ng/mL (≈ 0.12 nM) | 4000 ng/mL (≈ 4000 nM) | 500 ng/mL (≈ 500 nM)
COC1C=COC2(C)Oc3c(C)c(O)c4c(=O)c(c5oc6cc(N7CC8CCCNC8C7)cc(O)c6nc-5c4c3C2=O)NC(=O)C(C)=CC=CC(C)C(O)C(C)C(O)C(C)C(O)C1C (centres unmarked) [Compound 15] | 1000 ng/mL (≈ 1130 nM) | 30 ng/mL (≈ 34 nM) | 2 ng/mL (≈ 2.26 nM) | >8000 ng/mL | 250 ng/mL (≈ 283 nM)
CO[C@H]1/C=C/O[C@@]2(C)Oc3c(C)c(O)c4c(=O)c(c5oc6cc(N7CC8CCC(C7)N8)cc(O)c6nc-5c4c3C2=O)NC(=O)/C(C)=C\C=C\[C@H](C)[C@H](O)[C@@H](C)[C@@H](O)[C@@H](C)[C@H](O)[C@@H]1C [Compound 16] | 250 ng/mL (≈ 288 nM) | 15 ng/mL (≈ 17.3 nM) | 1 ng/mL (≈ 1.15 nM) | 4000 ng/mL (≈ 4600 nM) | 120 ng/mL (≈ 138 nM)
CO[C@H]1/C=C/O[C@@]2(C)Oc3c(C)c(O)c4c(=O)c(c5oc6cc(N7CCC(N(C)C)CC7)cc(O)c6nc-5c4c3C2=O)NC(=O)/C(C)=C\C=C\[C@H](C)[C@H](O)[C@@H](C)[C@@H](O)[C@@H](C)[C@H](OC(C)=O)[C@@H]1C [Compound 17] | 1000 ng/mL (≈ 1080 nM) | 8 ng/mL (≈ 8.63 nM) | 0.12 ng/mL (≈ 0.129 nM) | 8000 ng/mL (≈ 8630 nM) | 1000 ng/mL (≈ 1080 nM)
CO[C@H]1/C=C/O[C@@]2(C)Oc3c(C)c(O)c4c(=O)c(c5oc6cc(N7CCC(N(C)C)CC7)cc(O)c6nc-5c4c3C2=O)NC(=O)/C(C)=C\C=C\[C@H](C)[C@H](O)[C@@H](C)[C@@H](O)[C@@H](C)[C@H](O)[C@@H]1C [Compound 18] | 500 ng/mL (≈ 565 nM) | 4 ng/mL (≈ 4.52 nM) | 0.12 ng/mL (≈ 0.136 nM) | 4000 ng/mL (≈ 4520 nM) | 120 ng/mL (≈ 136 nM)
CCOC(=O)NC1CCN(c2ccc3nc4c5c6c7c(C)c(O)c5c(=O)c(c-4n(C)c3c2)NC(=O)/C(C)=C\C=C\[C@H](C)[C@H](O)[C@@H](C)[C@@H](O)[C@@H](C)[C@H](OC(C)=O)[C@H](C)[C@@H](OC)/C=C/O[C@@](C)(O7)C6=O)CC1 [Compound 19] | 250 ng/mL (≈ 258 nM) | 4 ng/mL (≈ 4.13 nM) | 1 ng/mL (≈ 1.03 nM) | 4000 ng/mL (≈ 4130 nM) | 60 ng/mL (≈ 62 nM)
COC1C=COC2(C)Oc3c(C)c(O)c4c(=O)c(c5oc6cc(N7CC8C(N)C8C7)cc(O)c6nc-5c4c3C2=O)NC(=O)C(C)=CC=CC(C)C(O)C(C)C(O)C(C)C(O)C1C (centres unmarked) [Compound 20] | >8000 ng/mL | 2000 ng/mL (≈ 2340 nM) | 1000 ng/mL (≈ 1170 nM) | >8000 ng/mL | >8000 ng/mL
CCOC(=O)NC1C2CN(c3cc(O)c4nc5c6c7c8c(C)c(O)c6c(=O)c(c-5oc4c3)NC(=O)C(C)=CC=CC(C)C(O)C(C)C(O)C(C)C(OC(C)=O)C(C)C(OC)C=COC(C)(O8)C7=O)CC21 (centres unmarked) [Compound 21] | 500 ng/mL (≈ 516 nM) | 4 ng/mL (≈ 4.13 nM) | 1 ng/mL (≈ 1.03 nM) | 4000 ng/mL (≈ 4130 nM) | 120 ng/mL (≈ 124 nM)
CO[C@H]1/C=C/O[C@@]2(C)Oc3c(C)c(O)c4c(=O)c(c5oc6cc(N7CCC(NC(=O)OC(C)C)CC7)cc(O)c6nc-5c4c3C2=O)NC(=O)/C(C)=C\C=C\[C@H](C)[C@H](O)[C@@H](C)[C@@H](O)[C@@H](C)[C@H](OC(C)=O)[C@@H]1C [Compound 22] | 2000 ng/mL (≈ 2030 nM) | 15 ng/mL (≈ 15.2 nM) | 0.25 ng/mL (≈ 0.254 nM) | >8000 ng/mL | 4000 ng/mL (≈ 4060 nM)
CO[C@H]1/C=C/O[C@@]2(C)Oc3c(C)c(O)c4c(=O)c(c5oc6cc(N7CCC(NS(=O)(=O)C(F)(F)F)CC7)cc(O)c6nc-5c4c3C2=O)NC(=O)/C(C)=C\C=C\[C@H](C)[C@H](O)[C@@H](C)[C@@H](O)[C@@H](C)[C@H](OC(C)=O)[C@@H]1C [Compound 23] | 2000 ng/mL (≈ 1940 nM) | 15 ng/mL (≈ 14.5 nM) | 0.12 ng/mL (≈ 0.116 nM) | >8000 ng/mL | 4000 ng/mL (≈ 3880 nM)
CCCC(=O)NC1CCN(c2cc(O)c3nc4c5c6c7c(C)c(O)c5c(=O)c(c-4oc3c2)NC(=O)/C(C)=C\C=C\[C@H](C)[C@H](O)[C@@H](C)[C@@H](O)[C@@H](C)[C@H](OC(C)=O)[C@H](C)[C@@H](OC)/C=C/O[C@@](C)(O7)C6=O)CC1 [Compound 24] | 2000 ng/mL (≈ 2060 nM) | 15 ng/mL (≈ 15.5 nM) | 1 ng/mL (≈ 1.03 nM) | >8000 ng/mL | 2000 ng/mL (≈ 2060 nM)
CO[C@H]1/C=C/O[C@@]2(C)Oc3c(C)c(O)c4c(=O)c(c5oc6cc(N7CCC(NS(C)(=O)=O)CC7)cc(O)c6nc-5c4c3C2=O)NC(=O)/C(C)=C\C=C\[C@H](C)[C@H](O)[C@@H](C)[C@@H](O)[C@@H](C)[C@H](OC(C)=O)[C@@H]1C [Compound 25] | 2000 ng/mL (≈ 2050 nM) | 8 ng/mL (≈ 8.19 nM) | 1 ng/mL (≈ 1.02 nM) | >8000 ng/mL | 2000 ng/mL (≈ 2050 nM)
CCCNC(=O)NC1CCN(c2cc(O)c3nc4c5c6c7c(C)c(O)c5c(=O)c(c-4oc3c2)NC(=O)/C(C)=C\C=C\[C@H](C)[C@H](O)[C@@H](C)[C@@H](O)[C@@H](C)[C@H](O)[C@H](C)[C@@H](OC)/C=C/O[C@@](C)(O7)C6=O)CC1 [Compound 26] | 1000 ng/mL (≈ 1060 nM) | 8 ng/mL (≈ 8.49 nM) | 0.12 ng/mL (≈ 0.127 nM) | >8000 ng/mL | 2000 ng/mL (≈ 2120 nM)
CO[C@H]1/C=C/O[C@@]2(C)Oc3c(C)c(O)c4c(=O)c(c5oc6cc(N7CCC(NS(C)(=O)=O)CC7)cc(O)c6nc-5c4c3C2=O)NC(=O)/C(C)=C\C=C\[C@H](C)[C@H](O)[C@@H](C)[C@@H](O)[C@@H](C)[C@H](O)[C@@H]1C [Compound 27] | 120 ng/mL (≈ 128 nM) | 15 ng/mL (≈ 16 nM) | 1 ng/mL (≈ 1.07 nM) | >8000 ng/mL | 1000 ng/mL (≈ 1070 nM)
CCCNC(=O)NC1CCN(c2cc(O)c3nc4c5c6c7c(C)c(O)c5c(=O)c(c-4oc3c2)NC(=O)/C(C)=C\C=C\[C@H](C)[C@H](O)[C@@H](C)[C@@H](O)[C@@H](C)[C@H](OC(C)=O)[C@H](C)[C@@H](OC)/C=C/O[C@@](C)(O7)C6=O)CC1 [Compound 28] | 250 ng/mL (≈ 254 nM) | 30 ng/mL (≈ 30.5 nM) | 2 ng/mL (≈ 2.03 nM) | >8000 ng/mL | 1000 ng/mL (≈ 1020 nM)
CO[C@H]1/C=C/O[C@@]2(C)Oc3c(C)c(O)c4c(=O)c(c5oc6cc(N7CCC(NC(=O)OC(C)C)CC7)cc(O)c6nc-5c4c3C2=O)NC(=O)/C(C)=C\C=C\[C@H](C)[C@H](O)[C@@H](C)[C@@H](O)[C@@H](C)[C@H](O)[C@@H]1C [Compound 29] | 1000 ng/mL (≈ 1060 nM) | 8 ng/mL (≈ 8.48 nM) | 0.12 ng/mL (≈ 0.127 nM) | >8000 ng/mL | 2000 ng/mL (≈ 2120 nM)
COC(=O)NC1CCN(c2cc(O)c3nc4c5c6c7c(C)c(O)c5c(=O)c(c-4oc3c2)NC(=O)/C(C)=C\C=C\[C@H](C)[C@H](O)[C@@H](C)[C@@H](O)[C@@H](C)[C@H](O)[C@H](C)[C@@H](OC)/C=C/O[C@@](C)(O7)C6=O)CC1 [Compound 30] | 500 ng/mL (≈ 546 nM) | 15 ng/mL (≈ 16.4 nM) | 2 ng/mL (≈ 2.19 nM) | >8000 ng/mL | 1000 ng/mL (≈ 1090 nM)
CCOC(=O)NC1CCN(c2ccc3nc4c5c6c7c(C)c(O)c5c(=O)c(c-4n(C)c3c2)NC(=O)/C(C)=C\C=C\[C@H](C)[C@H](O)[C@@H](C)[C@@H](O)[C@@H](C)[C@H](O)[C@H](C)[C@@H](OC)/C=C/O[C@@](C)(O7)C6=O)CC1 [Compound 31] | 250 ng/mL (≈ 270 nM) | 30 ng/mL (≈ 32.4 nM) | 0.5 ng/mL (≈ 0.54 nM) | 8000 ng/mL (≈ 8640 nM) | 250 ng/mL (≈ 270 nM)
COC(=O)NC1CCN(c2cc(O)c3nc4c5c6c7c(C)c(O)c5c(=O)c(c-4oc3c2)NC(=O)/C(C)=C\C=C\[C@H](C)[C@H](O)[C@@H](C)[C@@H](O)[C@@H](C)[C@H](OC(C)=O)[C@H](C)[C@@H](OC)/C=C/O[C@@](C)(O7)C6=O)CC1 [Compound 32] | >8000 ng/mL | 2000 ng/mL (≈ 2090 nM) | 4000 ng/mL (≈ 4180 nM) | >8000 ng/mL | >8000 ng/mL
CO[C@H]1/C=C/O[C@@]2(C)Oc3c(C)c(O)c4c(=O)c(c5oc6cc(N7CCC(N)CC7)cc(O)c6nc-5c4c3C2=O)NC(=O)/C(C)=C\C=C\[C@H](C)[C@H](O)[C@@H](C)[C@@H](O)[C@@H](C)[C@H](OC(C)=O)[C@@H]1C [Compound 33] | 1000 ng/mL (≈ 1110 nM) | 8 ng/mL (≈ 8.9 nM) | 0.06 ng/mL (≈ 0.0667 nM) | >8000 ng/mL | 1000 ng/mL (≈ 1110 nM)
CCNC(=O)NC1CCN(c2cc(O)c3nc4c5c6c7c(C)c(O)c5c(=O)c(c-4oc3c2)NC(=O)/C(C)=C\C=C\[C@H](C)[C@H](O)[C@@H](C)[C@@H](O)[C@@H](C)[C@H](OC(C)=O)[C@H](C)[C@@H](OC)/C=C/O[C@@](C)(O7)C6=O)CC1 [Compound 34] | 500 ng/mL (≈ 515 nM) | 30 ng/mL (≈ 30.9 nM) | 1 ng/mL (≈ 1.03 nM) | 8000 ng/mL (≈ 8250 nM) | 2000 ng/mL (≈ 2060 nM)
CCCS(=O)(=O)NC1CCN(c2cc(O)c3nc4c5c6c7c(C)c(O)c5c(=O)c(c-4oc3c2)NC(=O)/C(C)=C\C=C\[C@H](C)[C@H](O)[C@@H](C)[C@@H](O)[C@@H](C)[C@H](OC(C)=O)[C@H](C)[C@@H](OC)/C=C/O[C@@](C)(O7)C6=O)CC1 [Compound 35] | 500 ng/mL (≈ 497 nM) | 15 ng/mL (≈ 14.9 nM) | 0.25 ng/mL (≈ 0.249 nM) | 8000 ng/mL (≈ 7960 nM) | 4000 ng/mL (≈ 3980 nM)
